Molecules are shown by their SMILES. ≈ marks a conversion by molar mass, not a printed value. Read-outs that look alike come from different tables or passages of the source. Where only a bound is given, the exact number is not on record here.

The source of these data is patent publication US5977077A, “Xanthone analogs for the treatment of infectious diseases” (Interlab Corporation, priority 1996, dated 1999).

For assay [1], the system named is Leishmania donovani. The experiment in a line: In vitro anti-leishmania activity, radiolabeled thymidine uptake assay. The assay is classed as cell-based. The conditions noted are these: for IC50: Leishmania donovani. The procedure: Briefly, promastigotes were cultivated at 25° C. in Schneiders medium supplemented with 20% inactivated fetal calf serum and 100 μg/mL of gentamicin. Cells were maintained in log phase by seeding at 1×10^6 /mL with subculturing when cultured densities approached 4×10^7 /mL before reaching their maximal density. For the assay, early log phase promastigotes were counted on a hemacytometer and resuspended at a concentration of 1-2×10^6 cell/mL in assay media (Schneiders medium plus 10% fetal bovine serum). Ten-fold serial dilutions of each test compound were prepared as described above and added to 180 μL of the parasite suspension. After incubation for 24 hours at 25° C., methyl-^3 H-thymidine was added to each sample for a final concentration of 1-2 μCi per well. Each sample was then incubated for an additional 18 hours prior to harvesting. After this incubation time, each sample was aspirated onto a filter mat, washed thoroughly with deionized water, dried and then counted in a scintillation counter with scintillation cocktail.

Assay [2] deals with Candida albicans (clinical isolate). The experiment in a line: Anti-Candida activity, minimum inhibitory concentration by visual inspection. The assay is classed as cell-based. The conditions noted are these: 15-18 hour incubation, 35° C., read-out: MIC against Candida albicans. The procedure:
The minimum inhibitory concentration (MIC) of formula X1 compounds against a clinical isolate of Candida albicans was determined using the following method. […] The determination of this concentration is made by visual inspection; there is no visible growth in a tube containing the MIC of the formula X1 compound whereas visible growth is present in tubes containing sub-MIC concentrations of the compound.
Candida albicans was grown to midlog-phase in Luria-Bertani broth (10 grams Bacto-tryptone, 5 grams Bacto-yeast extract and 10 grams NaCl per liter) and then inoculated into sterile test tubes containing LB broth to an initial density of 10^3 /ml. The formula X1 compound to be tested is dissolved in dimethylsulfoxide (DMSO) at a concentration of 10 mM and added to each tube at serial dilutions (1 μM, 10 μM, 25 μM, 50 μM, 100 μM and 0 μM). The tubes are incubated at 35° C. for 15-18 hours and then visually inspected.

In assay [3] the test system is Plasmodium falciparum (D6 strain). As to the kind of experiment: In vitro anti-malarial activity, [3H]-ethanolamine incorporation. The conditions noted are these: for IC50: Plasmodium falciparum; for anti-malarial potency relative to 2,3,4,5,6-pentahydroxyxanthone: in words. The assay is classed as cell-based. The method, then: The D6 strain of P. falciparum was cultured in Group A^+ human erythrocytes and suspended at a 3.3% hematocrit in RPMI-1640 (Gibco, Grand Island, N.Y.) (containing 4 g/L glucose, 50 mg/L gentamicin and 10% group A^+ human serum), buffered with 25 mM HEPES and 25 mM NaHCO3 (Larrey, 1989). Cultures were maintained at 37° C. in a gas mixture of 5% oxygen, 5% CO2, and 90% nitrogen.
The in vitro anti-malarial activities of 2,3,4,5,6-pentahydroxyxanthone and other formula X1 compounds were measured by the [^3 H]-ethanolamine incorporation method as described in Elabbadi et al., 1992, with minor modifications. [^3 H]-ethanolamine was obtained from American Radiolabeled Chemicals, Inc., St. Louis, Mo. Experiments were conducted in 96 well plates in a total volume of 200 μl at a final red blood cell concentration of 3.3% (v/v). An initial parasitemia of 0.2 to 0.5% was attained by addition of normal uninfected red cells. Radiolabeled ethanolamine was added after 48 hours of incubation and the experiment was terminated after 72 hours by collecting the cells onto glass fiber filters with an automated multiwell harvester.
Stock solutions of the various formula X1 compounds were dissolved in DMSO at a concentration of 1 mM and diluted in complete medium (including 10% human serum) to provide 10× stock concentrations in the range of 1 to 10,000 nM. The concentration of the formula X1 compound giving 50% inhibition of label incorporation (IC50) relative to control (i.e., drug-free) conditions was calculated from the dose-response curve.

Assay [4] relates to Leishmania donovani. Conditions: reported by Grogl et al. (1992); cited from earlier work.
[5] abbreviates: Table 2, read-out: IC50, mg/ml vs. Leishmania.
Setting [6] is: promastigotes, read-out: anti-leishmanial activity IC50.
[7] abbreviates: D6 strain, 72 h, read-out: anti-malarial activity IC50.
The mark [8] stands for this setting: Table 1, D6 strain, 72 h, read-out: IC50, μM vs. Plasmodium.
[9] abbreviates: D6, 72 h, read-out: IC50, μM vs. Plasmodium.

Regarding `O=c1c2cc(O)c(O)c(O)c2oc2c(O)c(O)c(O)cc12` [2,3,4,5,6,7-hexahydroxyxanthone], the IC50 was 0.0015 mg/mL in assay [1] (setting [5]), about 5000 nM in assay [1] (setting [6]), 0.075 µM in assay [3] (setting [7]) and 0.075 µM in assay [3] (setting [8]). Also, the MIC in assay [2] was about 37.5 µM (≈ 11 µg/mL).
As for `O=c1c2ccc(O)c(O)c2oc2c(O)c(O)c(O)cc12` [2,3,4,5,6-pentahydroxyxanthone], the IC50 in assay [1] (setting [5]) was 0.0015 mg/mL; in assay [1] (setting [6]), about 5000 nM; in assay [3] (setting [7]), 0.4 to 0.5 µM; in assay [3] (setting [8]) it was 0.4 to 0.5 µM. Moreover, the “anti-leishmanial activity IC50” value in assay [1] (promastigotes, value in mg/ml) was about 1 µg/mL. Further, the MIC in assay [2] was about 37.5 µM (≈ 10.4 µg/mL).
`O=c1c2ccccc2oc2cc(O)cc(O)c12` [1,3-dihydroxyxanthone, 1,3-dihydroxyxanthone]: the IC50 in assay [3] (setting [8]) was over 100 µM.
Turning to `COc1cc2c(=O)c3ccc(OC)c(OC)c3oc2c(OC)c1OC` [2,3,4,5,6-pentamethoxyxanthone], the IC50 in assay [3] (setting [7]) and in assay [3] (setting [8]) was over 100 µM throughout. Besides, in assay [3], the “anti-malarial potency relative to 2,3,4,5,6-pentahydroxyxanthone” value is on record as “essentially eliminated the anti-malarial activity”.
For the compound `O=c1c2ccc(O)c(O)c2oc2c(O)c(O)ccc12` [3,4,5,6-Tetrahdroxyxanthone, 3,4,5,6-Tetrahdroxy-xanthone], the IC50 in assay [3] (setting [8]) was 10 µM.
Turning to `COc1c(O)cc2oc3cc(O)c(CC=C(C)C)c(O)c3c(=O)c2c1CC=C(C)C` [Mangostin, reference compound], the IC50 in assay [1] (read-out: anti-leishmanial activity IC50) worked out at 0.00041 mg/mL; in assay [1] (setting [5]), 0.00041 mg/mL; in assay [1] (setting [6]), 1000 nM; in assay [3] (setting [9]), 5 µM.
`O=c1c2ccccc2oc2ccccc12` [Xanthone]: in assay [3] (setting [9]), the IC50 amounted to 10 µM.
For `CCN(CC)CCCC(C)Nc1ccnc2cc(Cl)ccc12` (stereo not drawn) [Chloroquine, reference compound], the IC50 in assay [3] (D6, 72 h, read-out: anti-malarial activity IC50) was about 0.02 µM.
For the compound `O=c1c2cc(O)c(O)c(O)c2oc2cc(O)cc(O)c12` [1,3,5,6,7-pentahydroxyxanthone, 1,3,5,6,7-pentahydroxy-xanthone], in assay [3] (setting [8]), the IC50 was 1 µM.
`O=c1c2cc(O)c(O)c(O)c2oc2cc(O)c(O)c(O)c12` [1,2,3,5,6,7-Hexahydroxyxanthone, 1,2,3,5,6,7-Hexahydroxy-xanthone]: in assay [3] (setting [8]), the IC50 fell in the range of 25 to 50 µM.
In the case of `CC(=O)Oc1cc2c(=O)c3ccc(OC(C)=O)c(OC(C)=O)c3oc2c(OC(C)=O)c1OC(C)=O` [2,3,4,5,6-pentaacetoxyxanthone], the values for the IC50 in assay [3] (setting [7]) and in assay [3] (setting [8]) were about 0.075 µM and 0.075 µM, respectively. Further, the “anti-malarial potency relative to 2,3,4,5,6-pentahydroxyxanthone” value in assay [3] is listed as “several times more potent”.
Regarding `O=c1c2cc(O)c(O)cc2oc2cc(O)c([C@@H]3O[C@H](CO)[C@@H](O)[C@H](O)[C@H]3O)c(O)c12` [Mangiferin, reference compound], the IC50 in assay [1] (setting [5]) is over 0.05 mg/mL; in assay [3] (setting [8]) it was 50 µM.
With `O.O.O.O.O.O.O.O.O.O=C([O-])[C@@H]1[O][Sb](=[O])([O][Sb]2(=[O])[O][C@H]([C@H](O)CO)[C@H](O)[C@H](C(=O)[O-])[O]2)[O][C@H]([C@H](O)CO)[C@@H]1O.[Na+].[Na+].[Na+]` (stereo partly drawn) [Pentostam], in assay [4], the “IC50 values of commonly used anti-leishmanial drugs” value was 100 to 2000 µg/mL.

One may read the MIC as the lowest concentration found to suppress growth.
